# Assay results: article PMC5601486, “Identification of 4-phenylquinolin-2(1H)-one as a specific allosteric inhibitor of Akt” (Scientific Reports, 2017)
# Where two headings read alike, the source gives them in different places.
# Assays:
# Akt PH domain = biological target: T1, Akt PH domain (Homo sapiens, UniProt P31749); assay: Microscale thermophoresis; type: binding; conditions: recombinant Akt PH domain
# T1 construct: The Akt samples tested include recombinant Akt PH domain; purchased Millipore
# T1 sequence (P31749 5-108 limits assumed): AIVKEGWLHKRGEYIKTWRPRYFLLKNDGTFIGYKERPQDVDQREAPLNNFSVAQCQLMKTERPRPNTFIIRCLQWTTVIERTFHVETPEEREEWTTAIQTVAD
# Procedure: (§1) Using 0.1 M Tris-HCl buffer (pH 7.2) containing 0.05% Tween-20, a 1:1 serial dilution was prepared for G7 to yield 16 working solutions, with the highest concentration being 200 µM. Each of these G7 solutions was mixed with 1 µM of purified Akt sample prepared in the same 0.05% Tween-20 Tris-HCl buffer. […] After 15-min incubation the samples were centrifuged at 14,000 g at 4 °C before loading into premium coated capillaries (NanoTemper Tech.) for MST measurements. The MST experiments was conducted on a Monolith NT.LabelFree instrument (NanoTemper Tech.), at 20% LED power and 40% MST power. Data analyses were performed using the NanoTemper analysis software.
# full-length Akt = biological target: T2, full-length Akt (Homo sapiens, UniProt P31749); assay: Microscale thermophoresis; type: binding
# T2 construct: purchased Millipore
# T2 sequence (P31749 whole entry): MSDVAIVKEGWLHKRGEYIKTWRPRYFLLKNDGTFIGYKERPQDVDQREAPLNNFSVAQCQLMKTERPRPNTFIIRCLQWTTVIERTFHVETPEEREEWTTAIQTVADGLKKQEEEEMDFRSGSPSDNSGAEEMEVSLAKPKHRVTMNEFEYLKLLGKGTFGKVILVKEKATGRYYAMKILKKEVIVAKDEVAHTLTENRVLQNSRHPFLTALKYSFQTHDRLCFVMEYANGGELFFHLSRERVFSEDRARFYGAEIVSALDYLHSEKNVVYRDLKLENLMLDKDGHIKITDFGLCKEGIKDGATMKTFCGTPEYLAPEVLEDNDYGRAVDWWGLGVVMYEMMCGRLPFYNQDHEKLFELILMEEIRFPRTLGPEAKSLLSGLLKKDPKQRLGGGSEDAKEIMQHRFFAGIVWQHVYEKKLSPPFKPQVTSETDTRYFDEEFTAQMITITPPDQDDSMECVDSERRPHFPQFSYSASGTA
# Procedure: as §1
# Akt-PIP3 association = test system: T3, Akt-PIP3 association; assay: PIP3-Akt pull-down assay; type: binding; conditions: inactive Akt, PIP3 beads
# T3 construct: purchased Millipore 14-279
# Procedure: according to the method reported previously6. Briefly, the lipids dissolved in methanol/chloroform were mixed at desired proportions and dried with a N2 steam.
# The lipid mixture was redissolved in 2 mL cyclohexane containing 75 μM BHT (2,6-di-tert-butyl-p-cresol) and lyophilized under vacuum. Unilamellar vesicles were obtained by reconstituting the dried sample with 1 mL of PBS (pH 7.4) containing 50 μM DTPA (diethylenetriamine pentaacetic acid) followed by extrusion with 0.1 μm polycarbonate membrane (Corning, Inc.). For in vitro phosphorylation of Akt, 1 μL […]
# mixture was resolved on SDS gel followed by western blot analysis.
# The assay was performed using a protocol published previously7.
# (50 ng) in PBS containing 400 ng/mL BSA was incubated with inhibitor G7 or a PI analog (EMD Millipore, #124005) for 2 hr at 4 °C. 25 µL PIP3 beads (Echelon, #P-B345a) was added to the sample and incubated overnight at 4 °C. The beads were washed with washing buffer containing 10 mM HEPES (pH 7.5), 0.25% NP-40 and 150 mM NaCl. Akt was eluted with 2x LDS and measured by immunoblotting.
# Chemical cross-linking and mass spectrometry
# CHEK2 = assay: KINOMEscan; conditions: 50000 nM
# Procedure: KINOMEscan™ selectivity screen
# (§2) Briefly, Kinase-tagged T7 phage strains were grown in parallel in an E. coli host derived from the BL21 strain. E. coli were grown to log-phase and infected with T7 phage from a frozen stock and incubated with shaking at 32°C until lysis (90-150 minutes). The kinases were produced in HEK-293 cells and subsequently tagged with DNA for qPCR detection. Streptavidin-coated magnetic beads were treated with biotinylated small molecule ligands to generate affinity resins for kinase
# (§3) inhibitor or DMSO control was performed in polypropylene 384-well plates for 1 hr at room temperature. After wash with PBS buffer containing 0.05% Tween 20, the beads were incubated in elution buffer (PBS containing 0.05 % Tween 20 and 0.5 μM non-biotinylated affinity ligand) for 30 minutes at room temperature. The kinase concentration in the eluates was measured by qPCR.
# LIMK1 = assay: KINOMEscan; conditions: 50000 nM
# Procedure: KINOMEscan™ selectivity screen
# (§4) The assay was perfor med at DiscoveRx Corporation according the methods published previously5. Briefly, Kinase-tagged T7 phage strains were grown in parallel in an E. coli host derived from the BL21 strain. E. coli were grown to log-phase and infected with T7 phage from a frozen stock and incubated with shaking at 32°C until lysis (90-150 minutes). The kinases were produced in HEK-293 cells and subsequently tagged with DNA for qPCR detection. Streptavidin-coated magnetic beads were treated with biotinylated small molecule ligands to generate affinity resins for kinase
# as §3
# MAST1 = assay: KINOMEscan; conditions: 50000 nM
# Procedure: KINOMEscan™ selectivity screen
# as §4, §3
# MYLK2 = assay: KINOMEscan; conditions: 50000 nM
# Procedure: KINOMEscan™ selectivity screen
# as §4, §3
# PRKG2 = assay: KINOMEscan; conditions: 50000 nM
# Procedure: KINOMEscan™ selectivity screen
# as §4, §3
# PCTK2 = assay: KINOMEscan; conditions: 50000 nM
# Procedure: KINOMEscan™ selectivity screen
# as §4, §3
# p38-beta = assay: KINOMEscan; conditions: 50000 nM
# Procedure: KINOMEscan™ selectivity screen
# as §4, §3
# WNK1 = assay: KINOMEscan; conditions: 50000 nM
# Procedure: KINOMEscan™ selectivity screen
# as §4, §3
# TSSK3 = assay: KINOMEscan; conditions: 50000 nM
# Procedure: KINOMEscan™ selectivity screen
# as §4, §3
# MEK4 = assay: KINOMEscan; conditions: 50000 nM
# Procedure: KINOMEscan™ selectivity screen
# as §4, §3
# MYLK = assay: KINOMEscan; conditions: 50000 nM
# Procedure: KINOMEscan™ selectivity screen
# as §4, §3
# CAMK2A = assay: KINOMEscan; conditions: 50000 nM
# Procedure: KINOMEscan™ selectivity screen
# as §4, §3
# ERK4 = assay: KINOMEscan; conditions: 50000 nM
# Procedure: KINOMEscan™ selectivity screen
# as §4, §3
# EGFR(S752-I759del) = assay: KINOMEscan; conditions: 50000 nM
# Procedure: KINOMEscan™ selectivity screen
# as §4, §3
# DAPK2 = assay: KINOMEscan; conditions: 50000 nM
# Procedure: KINOMEscan™ selectivity screen
# as §4, §3
# EGFR(L858R) = assay: KINOMEscan; conditions: 50000 nM
# Procedure: KINOMEscan™ selectivity screen
# as §4, §3
# PIK3CA(E542K) = assay: KINOMEscan; conditions: 50000 nM
# Procedure: KINOMEscan™ selectivity screen
# as §4, §3
# MAPKAPK5 = assay: KINOMEscan; conditions: 50000 nM
# Procedure: KINOMEscan™ selectivity screen
# as §4, §3
# CSNK1A1 = assay: KINOMEscan; conditions: 50000 nM
# Procedure: KINOMEscan™ selectivity screen
# as §4, §3
# EGFR(G719C) = assay: KINOMEscan; conditions: 50000 nM
# Procedure: KINOMEscan™ selectivity screen
# as §2, §3
# DLK = assay: KINOMEscan; conditions: 50000 nM
# Procedure: KINOMEscan™ selectivity screen
# as §4, §3
# MLCK = assay: KINOMEscan; conditions: 50000 nM
# Procedure: KINOMEscan™ selectivity screen
# as §4, §3
# STK16 = assay: KINOMEscan; conditions: 50000 nM
# Procedure: KINOMEscan™ selectivity screen
# The kinases were produced in HEK-293 cells and subsequently tagged with DNA for qPCR detection. Streptavidin-coated magnetic beads were treated with biotinylated small molecule ligands to generate affinity resins for kinase
# as §3
# MEK6 = assay: KINOMEscan; conditions: 50000 nM
# Procedure: KINOMEscan™ selectivity screen
# as §4, §3
# PIP5K1A = assay: KINOMEscan; conditions: 50000 nM
# CDKL2 = assay: KINOMEscan; conditions: 50000 nM
# Procedure: KINOMEscan™ selectivity screen
# as §2, §3
# [1] = test system: RSK3(Kin.Dom.1-N-terminal); assay: KINOMEscan; conditions: 50000 nM
# Procedure: KINOMEscan™ selectivity screen
# as §2, §3
# SIK = assay: KINOMEscan; conditions: 50000 nM
# Procedure: KINOMEscan™ selectivity screen
# as §4, §3
# [2] = test system: ABL1(H396P)-nonphosphorylated; assay: KINOMEscan; conditions: 50000 nM
# Procedure: KINOMEscan™ selectivity screen
# as §4, §3
# ITK = assay: KINOMEscan; conditions: 50000 nM
# Procedure: KINOMEscan™ selectivity screen
# as §2, §3
# [3] = test system: ABL1(E255K)-phosphorylated; assay: KINOMEscan; conditions: 50000 nM
# Procedure: KINOMEscan™ selectivity screen
# as §4, §3
# [4] = test system: JAK3(JH1domain-catalytic); assay: KINOMEscan; conditions: 50000 nM
# Procedure: KINOMEscan™ selectivity screen
# (§5) The assay was perfor med at DiscoveRx Corporation according the methods published previously5. […] The kinases were produced in HEK-293 cells and subsequently tagged with DNA for qPCR detection. Streptavidin-coated magnetic beads were treated with biotinylated small molecule ligands to generate affinity resins for kinase
# as §3
# BIKE = assay: KINOMEscan; conditions: 50000 nM
# Procedure: KINOMEscan™ selectivity screen
# as §5, §3
# FLT3(D835H) = assay: KINOMEscan; conditions: 50000 nM
# Procedure: KINOMEscan™ selectivity screen
# as §4, §3
smiles,measurement,setting,value
"Oc1cc(-c2ccccc2)c2ccccc2n1 [G7, 4-phenylquinolin-2(1H)-one]",Kd,Akt PH domain,8 µM
same,Kd,"full-length Akt; active Akt, read-out: Kd",6.3 ± 2.9 µM
same,Kd,"full-length Akt; full-length Akt regardless of the activation status, read-out: Kd values",4 to 6 µM
same,Kd,"full-length Akt; inactive Akt, read-out: Kd",3.7 ± 1 µM
same,effect on the Akt-PIP3 association,Akt-PIP3 association,insignificant effect
same,Percent Control,CHEK2,100%
same,Percent Control,LIMK1,100%
same,Percent Control,MAST1,100%
same,Percent Control,MYLK2,100%
same,Percent Control,PRKG2,100%
same,Percent Control,PCTK2,99%
same,Percent Control,p38-beta,97%
same,Percent Control,WNK1,97%
same,Percent Control,TSSK3,95%
same,Percent Control,MEK4,93%
same,Percent Control,MYLK,90%
same,Percent Control,CAMK2A,87%
same,Percent Control,ERK4,86%
same,Percent Control,EGFR(S752-I759del),85%
same,Percent Control,DAPK2,83%
same,Percent Control,EGFR(L858R),83%
same,Percent Control,PIK3CA(E542K),82%
same,Percent Control,MAPKAPK5,81%
same,Percent Control,CSNK1A1,80%
same,Percent Control,EGFR(G719C),79%
same,Percent Control,DLK,78%
same,Percent Control,MLCK,78%
same,Percent Control,STK16,75%
same,Percent Control,MEK6,72%
same,Percent Control,PIP5K1A,70%
same,Percent Control,CDKL2,69%
same,Percent Control,[1],69%
same,Percent Control,SIK,65%
same,Percent Control,[2],62%
same,Percent Control,ITK,60%
same,Percent Control,[3],56%
same,Percent Control,[4],56%
same,Percent Control,BIKE,52%
same,Percent Control,FLT3(D835H),34%
